Laboratory results taken from PubChem BioAssay (NCI).
Several values for one entry are separate records, joined by “and”; a condition that tells them apart may be missing. Identical values can stand only once.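 Step 1: Grow cells in 96-well plates. Step 2: Expose to compound for 48 hours at 5 concentrations. Step 3: Interpolate endpoints linearly; if unreached, use highest concentration. The concentration for 50% growth inhibition is given as GI50. At the TGI there is no net growth.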

Assays:
Experiment in all cases: NCI-60 cell line screen, 48 h
[1] = tested on: 786-0 renal
[2] = tested on: DU-145 prostate
[3] = tested on: HCT-15 colon
[4] = tested on: IGROV1 ovarian
[5] = tested on: LOX IMVI melanoma
[6] = tested on: M14 melanoma
[7] = tested on: MALME-3M melanoma
[8] = tested on: OVCAR-4 ovarian
[9] = tested on: OVCAR-8 ovarian
[10] = tested on: RXF 393 renal

SMILES: CCCCCCCC(=O)Nc1nc2[nH]c(CN3CCN(Cc4cccc(I)c4)CC3)c(CN3CCN(Cc4cccc(I)c4)CC3)c2c(=O)[nH]1
- GI50 [1]: 0.793 µM
- TGI [1]: 1.5 µM
- GI50 [2]: 0.913 µM
- TGI [2]: 1.73 µM
- GI50 [3]: 0.812 µM
- TGI [3]: 1.54 µM
- GI50 [4]: 0.836 µM
- TGI [4]: 1.67 µM
- GI50 [5]: 0.762 µM
- TGI [5]: 1.44 µM
- GI50 [6]: 0.882 µM
- TGI [6]: 1.77 µM
- GI50 [7]: 0.866 µM
- TGI [7]: 1.7 µM
- GI50 [8]: 0.841 µM
- TGI [8]: 1.62 µM
- GI50 [9]: 1.04 µM
- TGI [9]: 2.25 µM
- GI50 [10]: 0.78 µM
- TGI [10]: 1.49 µM

SMILES: [Mn+3].[O-][Cl+3]([O-])([O-])O.[O-]c1ccccc1C=NCCN1CC1.[O-]c1ccccc1C=NCCN1CC1
- GI50 [1]: 27.2 µM
- TGI [1]: > 100 µM
- GI50 [2]: 22.7 µM
- TGI [2]: > 100 µM
- GI50 [3]: 4.15 µM
- TGI [3]: 18.3 µM
- GI50 [4]: 20.9 µM
- TGI [4]: 62.3 µM
- GI50 [6]: 26.9 µM
- TGI [6]: > 100 µM
- GI50 [7]: 19.7 µM
- TGI [7]: 39.9 µM
- GI50 [8]: 15.4 µM
- TGI [8]: > 100 µM
- GI50 [9]: 17.8 µM
- TGI [9]: > 100 µM
- GI50 [10]: 63 µM
- TGI [10]: > 100 µM

SMILES: CC[C@H](C)[C@H](NC(=O)c1ncccn1)C(=O)N(C)[C@H](C[C@@H](OC(C)=O)c1nc(C(=O)N[C@@H](Cc2ccccc2)C[C@H](C)C(=O)OC)cs1)C(C)C
- GI50 [1]: 1.72 µM
- TGI [1]: > 25 µM
- GI50 [2]: 1.78 µM
- TGI [2]: > 25 µM
- GI50 [3]: 1.39 µM
- TGI [3]: > 25 µM
- GI50 [4]: 1.38 µM
- TGI [4]: > 25 µM
- GI50 [5]: 1.46 µM
- TGI [5]: > 25 µM
- GI50 [6]: 1.13 µM
- TGI [6]: > 25 µM
- GI50 [7]: 1.29 µM
- TGI [7]: > 25 µM
- GI50 [8]: 4.42 µM
- TGI [8]: > 25 µM
- GI50 [9]: 2.25 µM
- TGI [9]: > 25 µM
- GI50 [10]: 0.809 µM
- TGI [10]: 20.6 µM

SMILES: C#Cc1cccc(Nc2nc(C)nc3cc(NC(=O)CCl)ccc23)c1
- GI50 [1]: 0.461 µM
- TGI [1]: 1.03 µM
- GI50 [2]: 3.67 µM
- TGI [2]: 7.08 µM
- GI50 [3]: 0.687 µM
- TGI [3]: 2.64 µM
- GI50 [4]: 0.533 µM
- TGI [4]: 1.37 µM
- GI50 [5]: 0.424 µM
- TGI [5]: 0.95 µM
- GI50 [6]: 2.55 µM
- TGI [6]: 6.17 µM
- GI50 [7]: 0.465 µM
- TGI [7]: 1.11 µM
- GI50 [8]: 1.83 µM
- TGI [8]: 6.05 µM
- GI50 [9]: 2.07 µM
- TGI [9]: 6.12 µM
- GI50 [10]: 3.28 µM
- TGI [10]: 6.86 µM

SMILES: Oc1cccc2ccc(SSc3ccc4cccc(O)c4n3)nc12
- TGI [1]: 40.4 µM
- TGI [2]: > 100 µM
- TGI [3]: 53.3 µM
- TGI [4]: 60.8 µM
- TGI [5]: 33.8 µM
- TGI [6]: 33.3 µM
- TGI [7]: 30 µM
- TGI [8]: 34.2 µM
- TGI [9]: 36.3 µM
- TGI [10]: 30.8 µM

SMILES: Oc1cccc2cccnc12
- TGI [1]: > 100 µM
- GI50 [2]: 20.9 µM and 68.8 µM and 18.2 µM
- TGI [2]: > 100 µM
- GI50 [3]: 2.04 µM and 5.51 µM and 2.52 µM
- TGI [3]: > 100 µM
- TGI [4]: 28.9 µM and 24.4 µM and > 100 µM
- GI50 [5]: 1.65 µM and 0.709 µM and 2.29 µM
- TGI [5]: 14.8 µM and > 100 µM
- GI50 [6]: 3.01 µM and 24.2 µM and 2.99 µM
- TGI [6]: 35.4 µM and > 100 µM
- TGI [7]: > 100 µM
- GI50 [8]: 6.13 µM and 19.9 µM and 3.37 µM
- TGI [8]: > 87.6 µM and 83.3 µM and > 100 µM
- GI50 [9]: 3.39 µM and 14.6 µM and 2.67 µM
- TGI [9]: > 100 µM
- GI50 [10]: 13.4 µM and 69.6 µM and 14.6 µM
- TGI [10]: > 100 µM
